# Active and inactive are the calls of the source. How the calls were made is not given here.
# Test system: rodent carcinogenicity bioassays, tumor incidence
# Assay: CCRIS carcinogenicity studies
# Summary of the method: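 Archive of carcinogenicity, mutagenicity, tumor promotion and tumor inhibition results drawn from journals, NCI reports and other sources, expert-reviewed; covers 1985-2011 and is no longer updated.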
smiles,measurement,setting,value
N[C@@H](CCC(=O)N[C@@H](CSc1cc(O)c(SC[C@H](NC(=O)CC[C@H](N)C(=O)O)C(=O)NCC(=O)O)c(SC[C@H](NC(=O)CC[C@H](N)C(=O)O)C(=O)NCC(=O)O)c1O)C(=O)NCC(=O)O)C(=O)O,carcinogen call,"Species: RAT, Strain/Sex: EKER(TSC2 MUTANT)/MALE, Route: INTRAPERITIONEAL, Dose: 0, 2.5 UMOL/KG BW 5 BW 5 D/WK FOR 4 MO FOLLOWED BY 3.5 UMOL/KG BW 5 D/WK FOR 6 MO (STUDY DURATION: 10 MO), Tumor Site: Type of Lesion: KIDNEY: ADENOMA OR CARCINOMA",active; positive
CNC(=O)Oc1cccc2c1OC(C)(C)O2,carcinogen call,"Species: Mouse, Strain/Sex: CD-1/Female, Route: Oral, Dose: 0, 50, 250, 1250 ppm in diet for 94 wks, Dose: 0, 50, 250, 1250 ppm in diet for 94 wks",inactive; negative; purity 92.7%
same,carcinogen call,"Species: Mouse, Strain/Sex: CD-1/Male, Route: Oral, Dose: 0, 50, 250, 1250 ppm in diet for 89 wks, Dose: 0, 50, 250, 1250 ppm in diet for 89 wks",inactive; negative; purity 92.7%
C#C[C@]1(OC(C)=O)CC[C@H]2[C@@H]3CCC4=C[C@@H](OC(C)=O)CC[C@@H]4[C@H]3CC[C@@]21C,carcinogen call,"Species: MOUSE, Route: ORAL, Tumor Site: Type of Lesion: MAMMARY GLAND",active; positive
same,carcinogen call,"Species: RAT, Route: ORAL, Tumor Site: Type of Lesion: MAMMARY GLAND",active; positive
CCOC(=O)C(C(=O)OCC)=C(NO)c1ccccc1,carcinogen call,"Species: Mouse, Strain/Sex: Swiss Albino/Female (60/sex/group), Route: Oral, Dose: 0, 10, 30, 100 ppm in feed for 18 mo, Dose: 0, 10, 30, 100 ppm in feed for 18 mo",inactive; negative; purity 97%
same,carcinogen call,"Species: Mouse, Strain/Sex: Swiss Albino/Male (60/sex/group), Route: Oral, Dose: 0, 10, 30, 100 ppm in feed for 18 mo, Dose: 0, 10, 30, 100 ppm in feed for 18 mo, Tumor Site: Type of Lesion: Liver: Hepatocellular adenoma (2/47, 4/48, 3/49, 5/53), Hepatocellular carcinoma (0/47, 0/48, 2/49, 4/53), Combined (2/4, Tumor Site: Type of Lesion: Liver: Hepatocellular adenoma (2/47, 4/48, 3/49, 5/53), Hepatocellular carcinoma (0/47, 0/48, 2/49, 4/53), Combined (2/4",active; positive (statistically significant trend but not incidence); purity 97%
same,carcinogen call,"Species: Rat, Strain/Sex: Sprague-Dawley /Female (70/sex/group in dosed animals; 105 controls/sex), Route: Oral, Dose: 0, 60, 190, 600 ppm in feed for 104 wks, Dose: 0, 60, 190, 600 ppm in feed for 104 wks",inactive; negative: purity 98.5%; liver: nonneoplastic liver lesions (eosinophilic cellula
same,carcinogen call,"Species: Rat, Strain/Sex: Sprague-Dawley /Male (70/sex/group in dosed animals; 105 controls/sex), Route: Oral, Dose: 0, 60, 190, 600 ppm in feed for 104 wks, Dose: 0, 60, 190, 600 ppm in feed for 104 wks",inactive; negative: purity 98.5%; liver: nonneoplastic liver lesions (eosinophilic cellula
Nc1cc(S(=O)(=O)O)cc2c1C(=O)/C(=N/Nc1ccc(-c3ccc(N/N=C4/C(=O)c5c(N)cc(S(=O)(=O)O)cc5C=C4S(=O)(=O)O)cc3)cc1)C(S(=O)(=O)O)=C2,carcinogen call,"Species: RAT, Strain/Sex: F344/FEMALE, Route: ORAL, Dose: 0, 190, 375, 750, 1500, 3000 PPM IN DIET FOR 91 D (STUDY DURATION: 93 D), Dose: 0, 190, 375, 750, 1500, 3000 PPM IN DIET FOR 91 D (STUDY DURATION: 93 D), Tumor Site: Type of Lesion: LIVER: HEPATOCELLULAR CARCINOMA OR NEOPLASTIC NODULE, FOCI OF CELLULAR ALTERATION OR BASOPHILIC FOCI",active; positive
same,carcinogen call,"Species: RAT, Strain/Sex: F344/MALE, Route: ORAL, Dose: 0, 190, 375, 750, 1500, 3000 PPM IN DIET FOR 91 D (STUDY DURATION: 93 D), Dose: 0, 190, 375, 750, 1500, 3000 PPM IN DIET FOR 91 D (STUDY DURATION: 93 D), Tumor Site: Type of Lesion: LIVER: HEPATOCELLULAR CARCINOMA OR NEOPLASTIC NODULE, FOCI OF CELLULAR ALTERATION OR BASOPHILIC FOCI",active; positive
FC(F)Cl,carcinogen call,"Species: MOUSE, Strain/Sex: SWISS/FEMALE, Route: INHALATION, Dose: 0, 1000, 5000 PPM 4 HR/D 5 D/WK FOR 78 WK (STUDY DURATION: LIFETIME), Dose: 0, 1000, 5000 PPM 4 HR/D 5 D/WK FOR 78 WK (STUDY DURATION: LIFETIME)",inactive; negative
same,carcinogen call,"Species: MOUSE, Strain/Sex: SWISS/MALE, Route: INHALATION, Dose: 0, 1000, 5000 PPM 4 HR/D 5 D/WK FOR 78 WK (STUDY DURATION: LIFETIME), Dose: 0, 1000, 5000 PPM 4 HR/D 5 D/WK FOR 78 WK (STUDY DURATION: LIFETIME)",inactive; negative
same,carcinogen call,"Species: RAT, Strain/Sex: SPRAGUE-DAWLEY/FEMALE, Route: INHALATION, Dose: 0, 1000, 5000 PPM 4 HR/D 5 D/WK FOR 104 WK (STUDY DURATION: LIFETIME), Dose: 0, 1000, 5000 PPM 4 HR/D 5 D/WK FOR 104 WK (STUDY DURATION: LIFETIME)",inactive; negative
same,carcinogen call,"Species: RAT, Strain/Sex: SPRAGUE-DAWLEY/FEMALE, Route: INHALATION, Dose: 0, 1000, 5000 PPM IN AIR 4 HR/D 5 D/WK FOR 104 WK (STUDY DURATION: LIFETIME), Dose: 0, 1000, 5000 PPM IN AIR 4 HR/D 5 D/WK FOR 104 WK (STUDY DURATION: LIFETIME), Tumor Site: Type of Lesion: [BRAIN WAS ONLY SITE EVALUATED]",inactive; negative
same,carcinogen call,"Species: RAT, Strain/Sex: SPRAGUE-DAWLEY/MALE, Route: INHALATION, Dose: 0, 1000, 5000 PPM 4 HR/D 5 D/WK FOR 104 WK (STUDY DURATION: LIFETIME), Dose: 0, 1000, 5000 PPM 4 HR/D 5 D/WK FOR 104 WK (STUDY DURATION: LIFETIME)",inactive; negative
same,carcinogen call,"Species: RAT, Strain/Sex: SPRAGUE-DAWLEY/MALE, Route: INHALATION, Dose: 0, 1000, 5000 PPM IN AIR 4 HR/D 5 D/WK FOR 104 WK (STUDY DURATION: LIFETIME), Dose: 0, 1000, 5000 PPM IN AIR 4 HR/D 5 D/WK FOR 104 WK (STUDY DURATION: LIFETIME), Tumor Site: Type of Lesion: [BRAIN WAS ONLY SITE EVALUATED]",inactive; negative
Nc1ccc(S(=O)(=O)c2ccc(N)cc2)cc1,carcinogen call,"Species: MOUSE, Strain/Sex: B6C3F1/FEMALE, Route: ORAL, Dose: 0, 500, 1000 PPM IN DIET FOR 78 WK (STUDY DURATION: 105-108 WK), Dose: 0, 500, 1000 PPM IN DIET FOR 78 WK (STUDY DURATION: 105-108 WK)",inactive; negative
same,carcinogen call,"Species: MOUSE, Strain/Sex: B6C3F1/MALE, Route: ORAL, Dose: 0, 500, 1000 PPM IN DIET FOR 78 WK (STUDY DURATION: 105-106 WK), Dose: 0, 500, 1000 PPM IN DIET FOR 78 WK (STUDY DURATION: 105-106 WK)",inactive; negative
same,carcinogen call,"Species: RAT, Strain/Sex: BDIV/MALE,FEMALE, Route: GAVAGE, Dose: 100 MG/KG TO MOTHERS DURING PREGNANCY AND DURING WEANING, 52 G/KG (TOTAL DOSE) TO OFFSPRING AFTER WEANING, Tumor Site: Type of Lesion: THYROID GLAND: MALIGNANT C CELL TUMOR",active; positive
same,carcinogen call,"Species: RAT, Strain/Sex: F344/FEMALE, Route: ORAL, Dose: 0, 600, 1200 PPM IN DIET FOR 78 WK (STUDY DURATION: 105-106 WK), Dose: 0, 600, 1200 PPM IN DIET FOR 78 WK (STUDY DURATION: 105-106 WK)",inactive; negative
same,carcinogen call,"Species: RAT, Strain/Sex: F344/FEMALE, Route: ORAL, Dose: 0, 600, 1200 PPM IN DIET FOR 78 WK (STUDY DURATION: 105 WK), Dose: 0, 600, 1200 PPM IN DIET FOR 78 WK (STUDY DURATION: 105 WK)",inactive; negative
same,carcinogen call,"Species: RAT, Strain/Sex: F344/MALE, Route: ORAL, Dose: 0, 600, 1200 PPM IN DIET FOR 78 WK (STUDY DURATION: 104-106 WK), Dose: 0, 600, 1200 PPM IN DIET FOR 78 WK (STUDY DURATION: 104-106 WK), Tumor Site: Type of Lesion: SPLEEN: FIBROMA OR FIBROSARCOMA OR SARCOMA (NOS), PERITONEAL CAVITY: FIBROSARCOMA, SARCOMA (NOS)",active; positive
same,carcinogen call,"Species: RAT, Strain/Sex: F344/MALE, Route: ORAL, Dose: 0, 600, 1200 PPM IN DIET FOR 78 WK (STUDY DURATION: 105 WK), Dose: 0, 600, 1200 PPM IN DIET FOR 78 WK (STUDY DURATION: 105 WK), Tumor Site: Type of Lesion: SPLEEN OR PERITONEUM: SARCOMA",active; positive
same,carcinogen call,"Species: RAT, Strain/Sex: WISTAR/MALE, Route: ORAL, Dose: 0.025% INCREASED TO 0.3% BY THIRD MO, Tumor Site: Type of Lesion: MULTIPLE SITES",active; positive
Cc1cccc(Nc2cc(Cl)nc(SCC(=O)NCCO)n2)c1C,carcinogen call,"Species: MOUSE, Strain/Sex: STRAIN-CS/FEMALE, Route: ORAL, Dose: 0.2% IN DIET FOR 19 MO, Tumor Site: Type of Lesion: LIVER: HEPATOCELLULAR CARCINOMA",active; positive
same,carcinogen call,"Species: RAT, Strain/Sex: F344/MALE, Route: ORAL, Dose: 0.05, 0.2% IN DIET FOR 19 MO (LOW DOSE) OR 16 MO (HIGH DOSE), Tumor Site: Type of Lesion: LIVER: HEPATOCELLULAR CARCINOMA",active; positive

# Source: PubChem BioAssay AID1259411 (Chemical Carcinogenesis Research Information System (CCRIS), 2018)
